Data reported in patent publication US11168072B2, “Crystal form of morpholino quinazoline compound, preparation method therefor and use thereof” (SHANGHAI YINGLI PHARMACEUTICAL CO., LTD, priority 2018, dated 2021).
“Also recorded” adds a separate entry of the source. Blank lines part the entries; values can stand above or below the molecule they belong to.

Experiments:
Type in all cases: physicochemical
[1] = Stability under high temperature, high humidity, illumination (influencing factors); conditions: for stability under illumination conditions (conclusion): illumination 4500±500 Lux; for changes in the appearance: illumination, high temperature (60° C.) and high humidity (25° C., RH75%) for 10 days
Protocol: Appropriate amount of the samples of the crystal form I of the morpholino quinazoline compound represented by formula A were placed on culture dishes which were then left open under high temperature (40±2° C. and 60±2° C.), high humidity (25° C., RH75±5% and RH90±5%) and illumination (4500±500 Lux, 25° C.) conditions, respectively.
Appropriate amount of the samples of the amorphous form of the morpholino quinazoline compound represented by formula A and the samples of the crystal form II of the morpholino quinazoline compound represented by formula A were placed on culture dishes respectively, which were then left open under high temperature (60±2° C.), high humidity (25° C., RH75±5%) and illumination (4500±500 Lux, 25° C.) conditions, respectively.

[2] = Dynamic vapor sorption analysis (DVS); conditions: for increase by mass compared to the initial mass (DVS weight gain): relative humidity from 0% to 95%
Protocol: (§1) Dynamic vapor sorption analysis (DVS): about 10 mg of the sample was taken and dried for 60 minutes under a temperature set at 25° C. and a humidity of 0% RH, and then the moisture sorption characteristics of the sample when the humidity changed from 0% RH to 95% RH was tested, and the moisture desorption characteristics of the sample when the humidity changed from 95% RH to 0% RH was tested; the humidity change step was 5% RH; the value of the mass change rate dm/dt less than 0.002% was considered as balance equilibrium, the rate of mass change within 5 minutes less than 0.01%/minute was considered as the equilibrium standard in the testing process, and the maximum equilibrium time was 2 hours. The isothermal water adsorption/desorption characteristics under this test condition were determined and XRPD detection was performed on the samples after the DVS test.
as §1, with “About” for “Dynamic vapor sorption analysis (DVS): about”

[3] = Stability in organic solvents with slurrying at high temperature for 18 hours (XRPD); conditions: slurried in ethanol, isopropanol and n-heptane at 80° C. for 18 hours
Protocol: To 5 g of the crystal form I of the morpholino quinazoline compound represented by formula A was added 10 g of ethanol, 10 g of isopropanol, and 10 g of n-heptane. The mixture was slurried at 80° C. for 18 hours, cooled to room temperature, filtered, and dried under vacuum at less than 85° C. for 16 hours to obtain about 4 g of sample.

[4] = Stability of crystal form in water and organic solvents at room temperature for 10 days (suspension, XRPD)
Protocol: About 20 mg of solid samples of the crystal form I of the morpholino quinazoline compound represented by formula A were weighed respectively and placed into vials, 1 mL of water or organic solvent was added to the vials respectively, and sonicated for 5 min to obtain suspensions. The suspensions were spun at room temperature for 10 days and the filtered wet samples were characterized by XRPD.

[5] = high temperature (60° C.) and high humidity (25° C., RH75%)
[6] = illumination 4500 Lux ± 500 Lux, 25° C., 5 days
[7] = illumination 4500 Lux ± 500 Lux, 25° C., 10 days
[8] = illumination (4500±500 Lux, 25° C.)
[9] = illumination 4500 Lux ± 500 Lux, 25° C., 1 month

- Content (%) ([1]; 0 day): 96.65%
- Total impurities (%) ([1]; 0 day): 3.28%
- Total impurities (%) ([1]; 25° C., RH 75 ± 5%, 5 days): 3.18%
- Total impurities (%) ([1]; 25° C., RH 75 ± 5%, 10 days): 3.61%
- Content (%) ([1]; 60° C., 5 days): 95.85%
- Content (%) ([1]; 60° C., 10 days): 97.0%
- Total impurities (%) ([1]; 60 ± 2° C., 5 days): 4.04%
- Total impurities (%) ([1]; 60 ± 2° C., 10 days): 2.97%
- Content (%) ([1]; 75% RH (25° C.), 5 days): 96.75%
- Content (%) ([1]; 75% RH (25° C.), 10 days): 96.24%
- change of total impurities content [1, 5]: increases slightly
- Content (%) [1, 6]: 96.26%
- Total impurities (%) [1, 6]: 3.64%
- Content (%) [1, 7]: 95.80%
- Total impurities (%) [1, 7]: 4.14%
- stability under illumination conditions (conclusion) ([1]; 25° C.): unstable
- change of total impurities content [1, 8]: increases significantly
- changes in the appearance [1]: no significant changes
- increase by mass compared to the initial mass (DVS weight gain) ([2]; 25° C.): 6.237%
- increase by mass compared to the initial mass (DVS weight gain) ([2]; 25° C., listed as crystal type II): 6.237%
- weight gain of crystal form II relative to that of crystal form I ([2]; relative humidity from 0 to 95%): 18 times
SMILES: COc1ncc(-c2nc(N3CCOCC3)nc3c(CN4CCC(C(C)(C)O)CC4)cc(F)cc23)cc1NS(C)(=O)=O [Crystal form II]

- X-ray powder diffraction pattern versus crystal form I of Example 1 [3]: consistent
- stability in water and organic solvents (conclusion) ([4]; room temperature and high temperature): good stability
- crystal form of filtered wet sample by XRPD ([4]; suspension in water or organic solvents, room temperature, 10 days): did not change
- stability under high temperature, high humidity and illumination conditions (conclusion) [1]: good stability
- Moisture (%) ([1]; 0 day): 0.07%
- Total impurities (%) ([1]; 0 day): 0.1%
- Moisture (%) ([1]; 25° C., RH 75 ± 5%, 1 month): 0.1%
- Total impurities (%) ([1]; 25° C., RH 75 ± 5%, 1 month): 0.1%
- Moisture (%) ([1]; 25° C., RH 75 ± 5%, 5 days): 0.1%
- Total impurities (%) ([1]; 25° C., RH 75 ± 5%, 5 days): 0.1%
- Moisture (%) ([1]; 25° C., RH 75 ± 5%, 10 days): 0.2%
- Total impurities (%) ([1]; 25° C., RH 75 ± 5%, 10 days): 0.1%
- Moisture (%) ([1]; 25° C., RH 90 ± 5%, 1 month): 0.1%
- Total impurities (%) ([1]; 25° C., RH 90 ± 5%, 1 month): 0.1%
- Moisture (%) ([1]; 25° C., RH 90 ± 5%, 5 days): 0.2%
- Total impurities (%) ([1]; 25° C., RH 90 ± 5%, 5 days): 0.1%
- Moisture (%) ([1]; 25° C., RH 90 ± 5%, 10 days): 0.2%
- Total impurities (%) ([1]; 25° C., RH 90 ± 5%, 10 days): 0.1%
- Moisture (%) ([1]; 40 ± 2° C., 1 month): 0.1%
- Total impurities (%) ([1]; 40 ± 2° C., 1 month): 0.1%
- Moisture (%) ([1]; 40 ± 2° C., 5 days): 0.1%
- Total impurities (%) ([1]; 40 ± 2° C., 5 days): 0.1%
- Moisture (%) ([1]; 40 ± 2° C., 10 days): 0.2%
- Total impurities (%) ([1]; 40 ± 2° C., 10 days): 0.1%
- Moisture (%) ([1]; 60 ± 2° C., 1 month): 0.1%
- Total impurities (%) ([1]; 60 ± 2° C., 1 month): 0.1%
- Moisture (%) ([1]; 60 ± 2° C., 5 days): 0.2%
- Total impurities (%) ([1]; 60 ± 2° C., 5 days): 0.1%
- Moisture (%) ([1]; 60 ± 2° C., 10 days): 0.2%
- Total impurities (%) ([1]; 60 ± 2° C., 10 days): 0.1%
- Moisture (%) [1, 9]: 0.1%
- Total impurities (%) [1, 9]: 0.2%
- Moisture (%) [1, 6]: 0.1%
- Total impurities (%) [1, 6]: 0.1%
- Moisture (%) [1, 7]: 0.1%
- Total impurities (%) [1, 7]: 0.1%
- increase by mass compared to the initial mass (DVS weight gain) ([2]; 25° C.): 0.34%
- increase by mass compared to the initial mass (DVS) ([2]; relative humidity from 0 to 90%, 25° C.): 0.23%
SMILES: COc1ncc(-c2nc(N3CCOCC3)nc3c(CN4CCC(C(C)(C)O)CC4)cc(F)cc23)cc1NS(C)(=O)=O [Crystal form I]
- hygroscopicity (conclusion) [2]: less hygroscopicity; also recorded: very low hygroscopicity

- Content (%) ([1]; 0 day): 98.60%
- Total impurities (%) ([1]; 0 day): 1.32%
- Total impurities (%) ([1]; 25° C., RH 75 ± 5%, 5 days): 1.37%
- Total impurities (%) ([1]; 25° C., RH 75 ± 5%, 10 days): 1.31%
- Content (%) ([1]; 60° C., 5 days): 98.43%
- Content (%) ([1]; 60° C., 10 days): 98.48%
- Total impurities (%) ([1]; 60 ± 2° C., 5 days): 1.54%
- Total impurities (%) ([1]; 60 ± 2° C., 10 days): 1.46%
- Content (%) ([1]; 75% RH (25° C.), 5 days): 98.51%
- Content (%) ([1]; 75% RH (25° C.), 10 days): 98.62%
- change of total impurities content [1, 5]: increases slightly
- Content (%) [1, 6]: 98.29%
- Total impurities (%) [1, 6]: 1.68%
- Content (%) [1, 7]: 97.80%
- Total impurities (%) [1, 7]: 2.16%
- stability under illumination conditions (conclusion) ([1]; 25° C.): unstable
- change of total impurities content [1, 8]: increases significantly
- changes in the appearance [1]: no significant changes
SMILES: COc1ncc(-c2nc(N3CCOCC3)nc3c(CN4CCC(C(C)(C)O)CC4)cc(F)cc23)cc1NS(C)(=O)=O [Amorphous form]
